The values below come from EP1147080B1 (Wyeth Holdings Corporation, priority 1999, dated 2000).

SMILES strings stand for the structures. Like-named read-outs stand apart in the source and are kept apart here.

Assay [1] concerns the target T1, MMP-1 (Homo sapiens, UniProt P03956).
T1 sequence (P03956 100-469): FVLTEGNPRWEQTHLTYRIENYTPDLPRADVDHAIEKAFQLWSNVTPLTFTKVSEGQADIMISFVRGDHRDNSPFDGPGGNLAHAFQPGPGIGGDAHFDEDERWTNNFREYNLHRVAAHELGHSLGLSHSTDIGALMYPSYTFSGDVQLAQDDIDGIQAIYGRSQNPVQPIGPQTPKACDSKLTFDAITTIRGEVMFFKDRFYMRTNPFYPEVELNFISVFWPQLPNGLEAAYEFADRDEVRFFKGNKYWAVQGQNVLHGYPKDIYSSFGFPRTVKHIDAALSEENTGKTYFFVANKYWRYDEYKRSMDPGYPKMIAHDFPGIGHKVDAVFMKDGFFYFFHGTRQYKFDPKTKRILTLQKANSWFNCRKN
Briefly: MMP-1 inhibition (thiopeptide or fluorescent peptide substrate). The conditions noted are these: for inhibition at 10 µM: read-out: MMP1.

Assay [2] concerns the target MMP-13 (Homo sapiens, UniProt P45452). In words: MMP-13 inhibition (thiopeptide or fluorescent peptide substrate). The assay is classed as biochemical. The conditions noted are these: read-out: MMP13; for inhibition at 1 µM: % at 1 um (specified in cell); for inhibition at 10 µM: % @ 10µM per footnote a. The text has this:
Alternatively, a fluorescent peptide substrate is used.

For assay [3], the target named is TNF-α converting enzyme (TACE) (Homo sapiens, UniProt P78536). In words: Test procedure for measuring TACE inhibition (fluorescent peptidyl substrate). The assay is classed as biochemical. The conditions noted are these: for inhibition at 10 µM: % @ 10µM per footnote a, read-out: TACE IC50.
Chain of TNF-α converting enzyme (TACE) (P78536 215-824): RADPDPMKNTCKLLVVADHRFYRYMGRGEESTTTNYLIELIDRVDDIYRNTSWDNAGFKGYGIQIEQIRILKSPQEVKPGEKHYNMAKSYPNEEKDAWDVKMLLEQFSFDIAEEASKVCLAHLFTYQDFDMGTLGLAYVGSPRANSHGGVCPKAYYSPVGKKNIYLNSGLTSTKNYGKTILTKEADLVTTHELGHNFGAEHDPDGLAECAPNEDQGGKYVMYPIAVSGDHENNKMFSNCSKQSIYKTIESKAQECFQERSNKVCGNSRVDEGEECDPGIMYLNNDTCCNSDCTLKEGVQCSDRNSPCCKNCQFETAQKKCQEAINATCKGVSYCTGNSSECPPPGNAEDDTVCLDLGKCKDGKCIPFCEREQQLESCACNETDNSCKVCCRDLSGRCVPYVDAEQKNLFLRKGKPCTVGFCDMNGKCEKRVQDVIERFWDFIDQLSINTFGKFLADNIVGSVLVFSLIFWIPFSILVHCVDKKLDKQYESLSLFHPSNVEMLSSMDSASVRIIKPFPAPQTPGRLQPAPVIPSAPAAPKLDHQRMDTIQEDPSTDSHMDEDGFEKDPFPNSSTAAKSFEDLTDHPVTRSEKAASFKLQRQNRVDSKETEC
Assay [4] has as its system THP-1 cells. Briefly: Human monocytic THP-1 cell differentiation assay for soluble proteins (THP soluble protein assay), LPS-stimulated, TNF-α ELISA. The assay is classed as cell-based. The conditions noted are these: for inhibition at 3 µM: Homo sapiens, THP-1; at 3 uM; percent change from vehicle positive control; read-out: TNFalpha at 3 uM) THP (percent change); for THP (% inhibition): Table 1, concentration not given. The text has this: Mitogenic stimulation of THP-1 cells cause differentiation into macrophage like cells with concomitant secretion of tumor necrosis factor (TNF-a) and TNF receptor (TNF-R p75/80 and TNF-R p55/60) and Interleukin-8 (IL-8), among other proteins. In addition, non-stimulated THP-1 cells shed both the p75/80 and the p55/60 receptors over time. The release of membrane bound TNF-a and possibly TNF-R p75/80 and TNF-R p55/60, but not IL-8, is mediated by an enzyme called TNF-α converting enzyme or TACE.
THP-1 cells (from ATCC) are a human monocytic cell line which were obtained from the peripheral blood of a person with acute monocytic leukemia. They can be grown in culture and differentiated into macrophage like cells by stimulation with mitogens.
Each vial of cells are cultured for about two weeks prior to being used for an assay and then are used for only 4 to 6 weeks to screen compounds.
Cell exposure to DMSO was limited to 0.1 % final concentration. […] Compounds can be evaluated for their effect on basal (non-stimulated) shedding of the receptors by replacing the LPS with […] of THP-1 media. Plates are placed into an incubator set at 5% CO2 and at 37°C. After 4 hours of incubation, […] of tissue culture supernatant (TCS) is removed for use in an TNF-α ELISA. Following 24 hours of incubation, […] of TCS is removed and used for analysis in TNF-R p75/80, TNF-R p55/60 and IL-8 ELISAs.
In addition, at the 24 hours timepoint, and the cells for each treatment group are collected by resuspension in 500 µl/well of THP-1 media and transferred into a FACS tube. […] The samples are run on a Becton Dickinson FaxCaliber FLOW cytometry machine and the amount of dye taken up by each cell is measured in the high red wavelength (FL3). Only cells with compromised membranes (dead or dying) can take up PI. The percent of live cells is calculated by the number of cells not stained with PI, divided by the total number of cells in the sample. The viability values calculated for the drug treated groups were compared to the viability value calculated for the vehicle treated mitogen stimulated group ("vehicle positive control") to determine the "percent change from control". This "percent change from control" value is an indicator of drug toxicity.
The quantity of soluble TNF-α, TNF-R p75/80 and TNF-R p55/60 and IL-8 in the TCS of the THP-1 cell cultures are obtained with commercially available ELISAs from R&D Systems, by extrapolation from a standard curve generated with kit standards. The number of cells that either take up or exclude PI are measured by the FLOW cytometry machine and visualized by histograms using commercially available Cytologic software for each treatment group including all controls.
Biological variability in the magnitude of the response of THP-1 cell cultures requires that experiments be compared on the basis of percent change from "vehicle positive control" for each drug concentration. Percent change in each soluble protein evaluated from the "vehicle positive control" was calculated for each compound concentration with the following formula: % Change =(pg/ml (compound) - pg/ml (veh pos control))/(pg/ml (veh pos control) - pg/ml (veh neg control))x 100 [formula]
For the soluble protein (TNF-a, p75/80, p55/60, IL-8) studies under stimulated conditions, the mean pg/ml of duplicate wells were determined and the results expressed as percent change from "vehicle positive control". For the soluble protein (p75/80 and p55/60 receptors) studies under non-stimulated conditions, the mean pg/ml of duplicate wells were determined and the results expressed as percent change from […] utilizing the following formula: % Change =(pg/ml (compound neg control) - pg/ml (veh neg control))/(pg/ml (veh neg control))X 100 [formula]
IC50 values for each compound are calculated by non-linear regression analysis using customized software utilizing the JUMP statistical package.

The mark [5] stands for this setting: second table, IC50 (nM) per footnote a.

In the case of `CC#CCOc1ccc([S+]([O-])C(C(=O)NO)c2ccc(Cl)cc2)cc1` (mixture of isomers) [Example 81, 2-{[4-(2-butynyloxy)phenyl]sulfinyl}-2-(4-chlorophenyl) N-hydroxyacetamide], the inhibition at 10 µM in assay [1] was 30.5%. In assay [2], the inhibition at 1 µM was 21.6%. Besides, the midpoint of inhibition in assay [3] (setting [5]), the IC50, lay at 223 nM. In addition, the inhibition at 3 µM in assay [4] is 6%.
For the compound `CC#CCOc1ccc([S+]([O-])[C@H](C(=O)NO)c2ccc(Br)cc2)cc1` (single isomer, unassigned) [Example 86], the inhibition at 10 µM in assay [1] came out at 24%; in assay [2], 51%. Also, in assay [3] (setting [5]), the midpoint of inhibition, the IC50, lay at 60 nM. Moreover, the inhibition at 3 µM in assay [4] is -2%.
The corresponding values for `CC#CCOc1ccc([S+]([O-])[C@@H](C(=O)NO)c2cccc(Br)c2)cc1` (single isomer, unassigned) [Example 104] are 6%, 54%, 63 nM and 4%.
The corresponding values for `CC#CCOc1ccc([S+]([O-])[C@H](C(=O)NO)c2cccc(Br)c2)cc1` (single isomer, unassigned) [Example 105] are 9%, 32%, 106 nM and -4%.
With `CC#CCOc1ccc(SC(C)C(=O)NO)cc1` (centres unmarked) [Example 4, 2-(4-But-2-ynyloxy-phenylsulfanyl)-N-hydroxy-propionamide], the IC50 (commonly the midpoint of a concentration-inhibition curve) in assay [3] (Table 1) worked out at 47.2 nM. Moreover, the “THP (% inhibition)” value in assay [4] came to 2%.
Take `CC#CCOc1ccc(S(=O)(=O)C(CCCCCC)C(=O)NO)cc1` (centres unmarked) [Example 5, 2-(4-But-2-ynyloxy-benzenesulfonyl)-octanoic acid hydroxamide]: the 50% inhibitory concentration (IC50) in assay [1] (read-out: MMP1 IC50, Table 1) was determined as 10000 nM. In addition, the “THP (% inhibition)” value in assay [4] is 6%.
As for `CC#CCOc1ccc(OCCC(=O)NO)cc1` [Example 9, 3-(4-But-2-ynyloxy-phenoxy)-N-hydroxy-propionamide], the half-maximal inhibitory concentration (IC50) in assay [1] was determined as 10000 nM; in assay [3] (Table 1), 30 nM. For the same compound, in assay [4], the “THP (% inhibition)” value is reported as 16%.
As for `CC#CCOc1ccc(SC(C(=O)NO)C2CCCCC2)cc1` (centres unmarked) [Example 73, 2-{[4-(2-butynyloxy)phenyl]sulfanyl}-2-cyclohexyl-N-hydroxyacetamide], the inhibition at 10 µM in assay [1] turned out to be 4.8%. Also, the inhibition at 3 µM in assay [4] is 0%.
On to `CC#CCOc1ccc(SC(C(=O)NO)c2cccc(Cl)c2)cc1` (centres unmarked) [Example 83, 2-{[4-(2-butynyloxy)phenyl]sulfanyl}-2-(3-chlorophenyl)-N-hydroxyacetamide], for which the inhibition at 10 µM in assay [1] is 9.4%; in assay [2], 36.4%. In assay [3] (setting [5]), inhibition was half-maximal at 133 nM (IC50). Further, in assay [4], the inhibition at 3 µM came out at 0%.
Consider `CC#CCOc1ccc(S(=O)(=O)C(C(=O)NO)c2cccc(Cl)c2)cc1` (centres unmarked) [Example 84, 2-{[4-(2-butynyloxy)phenyl]sulfonyl}-2-(3-chlorophenyl)-N-hydroxyacetamide], for which the inhibition at 10 µM in assay [1] amounted to 10%. For the same compound, in assay [2], the inhibition at 1 µM was 23%. For the same compound, in assay [4], the inhibition at 3 µM was -7%.
On to `CC#CCOc1ccc(SC(C(=O)NO)c2ccc(Br)cc2)cc1` (centres unmarked) [Example 85, 2-(4-bromophenyl)-2-{[4-(2-butynyloxy)phenyl]sulfanyl}-N-hydroxyacetamide], for which the inhibition at 10 µM worked out at 6.8% in assay [1] and 30.5% in assay [2]. Besides, half-maximal inhibition in assay [3] (setting [5]) (IC50) was put at 391 nM. In assay [4], the inhibition at 3 µM is -10%.
For the compound `CC#CCOc1ccc(S(=O)(=O)C(C(=O)NO)c2ccc(Br)cc2)cc1` (centres unmarked) [Example 88, 2-(4-bromophenyl)-2-{[4-(2-butynyloxy)phenyl]sulfonyl}-N-hydroxyacetamide], in assay [1], the inhibition at 10 µM was determined as 20%. Further, the inhibition at 1 µM in assay [2] stood at 21%. In assay [3] (setting [5]), this compound displayed a half-maximal inhibitory concentration (IC50) of 226 nM. In assay [4], the inhibition at 3 µM came to 4%.
For the compound `CC#CCOc1ccc(SC(C(=O)NO)c2ccc(-c3cccs3)cc2)cc1` (centres unmarked) [Example 89, 2{[4-(2-butynyloxy)phenyl]sulfanyl}-N-hydroxy-2-[4-(2-thienyl)phenyl]acetamide], the inhibition at 10 µM in assay [1] is 0%; in assay [2] it was 5%. Also, it took 617 nM to reach half-maximal inhibition in assay [3] (setting [5]) (IC50). Moreover, in assay [4], the inhibition at 3 µM turned out to be 2%.
Regarding `CC#CCOc1ccc([S+]([O-])[C@@H](C(=O)NO)c2ccc(-c3cccs3)cc2)cc1` (stereo partly drawn) [Example 90, (2R)-2-{[4-(2-butynyloxy)phenyl]sulfinyl}-N-hydroxy-2-[4-(2-thienyl)phenyl] ethanamide], the inhibition at 10 µM in assay [1] came out at 7%. The inhibition at 1 µM in assay [2] was 16%. In assay [4], the inhibition at 3 µM stood at 1%.
In the case of `CC#CCOc1ccc(S(=O)(=O)C(C(=O)NO)c2ccc(-c3cccs3)cc2)cc1` (centres unmarked) [Example 91, 2-{[4-(2-butynyloxy)phenyl]sulfonyl}-N-hydroxy-2-[4-(2-thienyl)phenyl]acetamide], the inhibition at 10 µM amounted to 10% in assay [1], 35% in assay [2] and 48% in assay [3]. For the same compound, in assay [4], the inhibition at 3 µM came out at 2%.
As for `CC#CCOc1ccc(SC(C(=O)NO)c2cccc3ccccc23)cc1` (centres unmarked) [Example 92, 2-{[4-(2-Butynyloxy)phenyl]sulfanyl}-N-hydroxy-2-(1-naphthyl)acetamide], the inhibition at 10 µM amounted to 8% in assay [1] and 25% in assay [2]. For the same compound, the IC50 in assay [3] (setting [5]) was determined as 931 nM. Also, the inhibition at 3 µM in assay [4] is -7%.
On to `CC#CCOc1ccc([S+]([O-])C(C(=O)NO)c2cccc3ccccc23)cc1` (centres unmarked) [Example 93, 2-{[4-(2-Butynyloxy)phenyl]sulfinyl}-N-hydroxy-2-(1-naphthyl)acetamide], for which the figures for the inhibition at 10 µM in assay [1], in assay [2] and in assay [3] were 7%, 17% and 15.6%, respectively. In addition, the inhibition at 3 µM in assay [4] is -1%.
On to `CC#CCOc1ccc(SC(C(=O)NO)c2cccc(Br)c2)cc1` (centres unmarked) [Example 103, 2-{[4-(2-Butynyloxy)phenyl]sulfanyl}-N-hydroxy-2-(3-bromophenyl) acetamide], for which the inhibition at 10 µM in assay [1] was 4%; in assay [2], 12%. In assay [3] (setting [5]), this compound yielded an IC50 of 113 nM.
Regarding `CC#CCOc1ccc(S(=O)(=O)C(C(=O)NO)C2CCOCC2)cc1` (centres unmarked) [Example 122, 2-{[4-(2-Butynyloxy)phenyl]sulfonyl}-N-hydroxy-2-tetrahydro-2H-pyran-4-yl-acetamide], the inhibition at 10 µM is 9% in assay [1] and 57% in assay [2]. Besides, the inhibition at 3 µM in assay [4] stood at 36%.
